Data: patent US20230085307A1, “PYRIDAZINONE COMPOUND AND HERBICIDE” (NISSAN CHEMICAL CORPORATION, priority 2019, published 2023)

Assays:
[1] = system: late watergrass; assay: Test Example 1: herbicidal activity, application before weed generation under submerged conditions (Table 16, symbol A); assay type: in vivo, late watergrass (Echinochloa oryzicola)
Procedure, shortened: (§1)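 Submerged Wagner pots (alluvial soil, 4 cm water) sown with weed seeds and planted with 2.5-leaf rice seedlings; emulsifiable concentrate diluted in water applied to water surface on sowing day. Held in greenhouse at 25-30 °C; injury scored 0-5 by herbicidal rate after three weeks.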

[2] = system: Japanese bulrush; assay: Test Example 1: herbicidal activity, application before weed generation under submerged conditions (Table 16, symbol B); assay type: in vivo, Japanese bulrush (Schoenoplectus juncoides)
Procedure, shortened: as §1

[3] = system: oval-leafed pondweed; assay: Test Example 1: herbicidal activity, application before weed generation under submerged conditions (Table 16, symbol C); assay type: in vivo, oval-leafed pondweed (Monochoria vaginalis)
Procedure, shortened: as §1

[4] = system: barnyard grass; assay: Test Example 3: herbicidal effect by foliage application, Wagner pot (Table 18, symbol H); assay type: in vivo, barnyard grass (Echinochloa crus-galli)
Procedure, shortened: (§2)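 Plants were sown in alluvial soil held under 0.1–0.5 cm standing water and grown 14 days in a greenhouse at 25–30 °C. An emulsifiable formulation, water-diluted to the set dose, was then sprayed onto the foliage, and effects were scored three weeks later using previously defined criteria.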

[5] = system: Chinese sprangletop; assay: Test Example 3: herbicidal effect by foliage application, Wagner pot (Table 18, symbol D); assay type: in vivo, chinese sprangletop (Leptochloa chinensis)
Procedure, shortened: as §2

[6] = system: rice flat sedge; assay: Test Example 3: herbicidal effect by foliage application, Wagner pot (Table 18, symbol E); assay type: in vivo, rice flat sedge (Cyperus iria)
Procedure, shortened: as §2

[7] = system: southern crabgrass; assay: Test Example 4: herbicidal effect by soil treatment (Table 19, symbol F); assay type: in vivo, southern crabgrass (Digitaria ciliaris)
Procedure, shortened: (§3)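 Applied as a water-diluted emulsion, the compound was sprayed onto soil covering newly sown seeds. Evaluation came three weeks after application, in a greenhouse held at 25° C. to 30° C.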

[8] = system: green foxtail; assay: Test Example 4: herbicidal effect by soil treatment (Table 19, symbol G); assay type: in vivo, green foxtail (Setaria viridis)
Procedure, shortened: as §3

[9] = system: barnyard grass; assay: Test Example 4: herbicidal effect by soil treatment (Table 19, symbol H); assay type: in vivo, barnyard grass (Echinochloa crus-galli)
Procedure, shortened: as §3

[10] = system: wild oat; assay: Test Example 4: herbicidal effect by soil treatment (Table 19, symbol I); assay type: in vivo, wild oat (Avena fatua)
Procedure, shortened: as §3

[11] = system: blackgrass; assay: Test Example 4: herbicidal effect by soil treatment (Table 19, symbol J); assay type: in vivo, blackgrass (Alopecurus myosuroides)
Procedure, shortened: as §3

[12] = system: Italian ryegrass; assay: Test Example 4: herbicidal effect by soil treatment (Table 19, symbol K); assay type: in vivo, Italian ryegrass (Lolium multiflorum)
Procedure, shortened: as §3

[13] = system: windgrass; assay: Test Example 4: herbicidal effect by soil treatment (Table 19, symbol L); assay type: in vivo, windgrass (Apera spica-venti)
Procedure, shortened: as §3

[14] = system: velvetleaf; assay: Test Example 4: herbicidal effect by soil treatment (Table 19, symbol M); assay type: in vivo, velvetleaf (Abutilon theophrasti)
Procedure, shortened: as §3

[15] = system: redroot pigweed; assay: Test Example 4: herbicidal effect by soil treatment (Table 19, symbol N); assay type: in vivo, redroot pigweed (Amaranthus retroflexus)
Procedure, shortened: as §3

[16] = system: lambsquarters; assay: Test Example 4: herbicidal effect by soil treatment (Table 19, symbol O); assay type: in vivo, lambsquarters (Chenopodium album)
Procedure, shortened: as §3

[17] = system: chickweed; assay: Test Example 4: herbicidal effect by soil treatment (Table 19, symbol P); assay type: in vivo, common chickweed (Stellaria media)
Procedure, shortened: as §3

[18] = system: persian speedwell; assay: Test Example 4: herbicidal effect by soil treatment (Table 19, symbol R); assay type: in vivo, Persian speedwell (Veronica persica)
Procedure, shortened: as §3

[19] = system: southern crabgrass; assay: Test Example 5: herbicidal effect by foliage application, plastic box (Table 20, symbol F); assay type: in vivo, southern crabgrass (Digitaria ciliaris); conditions: foliage application, three weeks after application
Procedure, shortened: (§4)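 Sow seeds spot-wise in sterilized diluvial soil; cover with ~1.5 cm soil. Grow 14 days in greenhouse, 25° C. to 30° C. Spray foliage with emulsion diluted to predetermined amount. Rate effect after 3 weeks.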

[20] = system: green foxtail; assay: Test Example 5: herbicidal effect by foliage application, plastic box (Table 20, symbol G); assay type: in vivo, green foxtail (Setaria viridis); conditions: foliage application, three weeks after application
Procedure, shortened: as §4

[21] = system: barnyard grass; assay: Test Example 5: herbicidal effect by foliage application, plastic box (Table 20, symbol H); assay type: in vivo, barnyard grass (Echinochloa crus-galli); conditions: foliage application, three weeks after application
Procedure, shortened: as §4

[22] = system: wild oat; assay: Test Example 5: herbicidal effect by foliage application, plastic box (Table 20, symbol I); assay type: in vivo, wild oat (Avena fatua); conditions: foliage application, three weeks after application
Procedure, shortened: as §4

[23] = system: blackgrass; assay: Test Example 5: herbicidal effect by foliage application, plastic box (Table 20, symbol J); assay type: in vivo, blackgrass (Alopecurus myosuroides); conditions: foliage application, three weeks after application
Procedure, shortened: as §4

[24] = system: Italian ryegrass; assay: Test Example 5: herbicidal effect by foliage application, plastic box (Table 20, symbol K); assay type: in vivo, Italian ryegrass (Lolium multiflorum); conditions: foliage application, three weeks after application
Procedure, shortened: as §4

[25] = system: windgrass; assay: Test Example 5: herbicidal effect by foliage application, plastic box (Table 20, symbol L); assay type: in vivo, windgrass (Apera spica-venti); conditions: foliage application, three weeks after application
Procedure, shortened: as §4

[26] = system: velvetleaf; assay: Test Example 5: herbicidal effect by foliage application, plastic box (Table 20, symbol M); assay type: in vivo, velvetleaf (Abutilon theophrasti); conditions: foliage application, three weeks after application
Procedure, shortened: as §4

[27] = system: lambsquarters; assay: Test Example 5: herbicidal effect by foliage application, plastic box (Table 20, symbol O); assay type: in vivo, lambsquarters (Chenopodium album); conditions: foliage application, three weeks after application
Procedure, shortened: as §4

[28] = system: persian speedwell; assay: Test Example 5: herbicidal effect by foliage application, plastic box (Table 20, symbol R); assay type: in vivo, Persian speedwell (Veronica persica); conditions: foliage application, three weeks after application
Procedure, shortened: as §4

[29] = amount of applied herbicide 344 g/ha
[30] = amount of applied herbicide 320 g/ha

With `CCCC(=O)Oc1c(C)nn(C)c(=O)c1-c1c(-c2ccc(F)cc2OC)sc2cc(OC)c(Cl)cc12` [5-076] the “Herbicidal effect, A: late watergrass” value [1, 29] was 2 (Herbicidal rate of 20% or more and less than 40%), the “Herbicidal effect, B: Japanese bulrush” value [2, 29] was 0 (Herbicidal rate of 5% or less (almost no effect)) and the “Herbicidal effect, C: oval-leafed pondweed” value [3, 29] was 1 (Herbicidal rate of 5% or more and less than 20%). For the same molecule, the “herbicidal effect on barnyard grass (H)” value ([4]; 344 g/ha) was 5 (Herbicidal rate of 90% or more (almost completely withered)), the “herbicidal effect on Chinese sprangletop (D)” value ([5]; 344 g/ha) was 0 (Herbicidal rate of 5% or less (almost no effect)) and the “herbicidal effect on rice flat sedge (E)” value ([6]; 344 g/ha) was 0 (Herbicidal rate of 5% or less (almost no effect)). The “F: southern crabgrass, herbicidal effect grade” value [7, 29] was 3 (Herbicidal rate of 40% or more and less than 70%), the “G: green foxtail, herbicidal effect grade” value [8, 29] was 3 (Herbicidal rate of 40% or more and less than 70%) and the “H: barnyard grass, herbicidal effect grade” value [9, 29] was 1 (Herbicidal rate of 5% or more and less than 20%). The “I: wild oat, herbicidal effect grade” value [10, 29] was 0 (Herbicidal rate of 5% or less (almost no effect)), the “J: blackgrass, herbicidal effect grade” value [11, 29] was 0 (Herbicidal rate of 5% or less (almost no effect)) and the “K: Italian ryegrass, herbicidal effect grade” value [12, 29] was 0 (Herbicidal rate of 5% or less (almost no effect)). The “L: windgrass, herbicidal effect grade” value [13, 29] was 0 (Herbicidal rate of 5% or less (almost no effect)), the “M: velvetleaf, herbicidal effect grade” value [14, 29] was 1 (Herbicidal rate of 5% or more and less than 20%) and the “N: redroot pigweed, herbicidal effect grade” value [15, 29] was 4 (Herbicidal rate of 70% or more and less than 90%). The “O: lambsquarters, herbicidal effect grade” value [16, 29] was 3 (Herbicidal rate of 40% or more and less than 70%), the “P: chickweed, herbicidal effect grade” value [17, 29] was 0 (Herbicidal rate of 5% or less (almost no effect)) and the “R: persian speedwell, herbicidal effect grade” value [18, 29] was 0 (Herbicidal rate of 5% or less (almost no effect)). For the same molecule, the “herbicidal effect on southern crabgrass (F)” value ([19]; 344 g/ha) was 1 (Herbicidal rate of 5% or more and less than 20%), the “herbicidal effect on green foxtail (G)” value ([20]; 344 g/ha) was 4 (Herbicidal rate of 70% or more and less than 90%) and the “herbicidal effect on barnyard grass (H)” value ([21]; 344 g/ha) was 3 (Herbicidal rate of 40% or more and less than 70%). For the same molecule, the “herbicidal effect on wild oat (I)” value ([22]; 344 g/ha) was 0 (Herbicidal rate of 5% or less (almost no effect)), the “herbicidal effect on blackgrass (J)” value ([23]; 344 g/ha) was 1 (Herbicidal rate of 5% or more and less than 20%) and the “herbicidal effect on Italian ryegrass (K)” value ([24]; 344 g/ha) was 0 (Herbicidal rate of 5% or less (almost no effect)). For the same molecule, the “herbicidal effect on windgrass (L)” value ([25]; 344 g/ha) was 3 (Herbicidal rate of 40% or more and less than 70%), the “herbicidal effect on velvetleaf (M)” value ([26]; 344 g/ha) was 3 (Herbicidal rate of 40% or more and less than 70%) and the “herbicidal effect on lambsquarters (O)” value ([27]; 344 g/ha) was 4 (Herbicidal rate of 70% or more and less than 90%). For the same molecule, the “herbicidal effect on persian speedwell (R)” value ([28]; 344 g/ha) was 0 (Herbicidal rate of 5% or less (almost no effect)).

`Cc1nn(C)c(=O)c(-c2c(-c3ccc(Cl)cc3)oc3ccc(F)cc23)c1O` [9-016] was tested, and the “Herbicidal effect, A: late watergrass” value [1, 30] was 3 (Herbicidal rate of 40% or more and less than 70%), the “Herbicidal effect, B: Japanese bulrush” value [2, 30] was 0 (Herbicidal rate of 5% or less (almost no effect)) and the “Herbicidal effect, C: oval-leafed pondweed” value [3, 30] was 0 (Herbicidal rate of 5% or less (almost no effect)). For the same molecule, the “Herbicidal effect on H (barnyard grass), foliage application” value [4, 30] was 5 (Herbicidal rate of 90% or more (almost completely withered)), the “Herbicidal effect on D (Chinese sprangletop), foliage application” value [5, 30] was 5 (Herbicidal rate of 90% or more (almost completely withered)) and the “Herbicidal effect on E (rice flat sedge), foliage application” value [6, 30] was 4 (Herbicidal rate of 70% or more and less than 90%). The “F: southern crabgrass, herbicidal effect grade” value [7, 30] was 3 (Herbicidal rate of 40% or more and less than 70%), the “G: green foxtail, herbicidal effect grade” value [8, 30] was 4 (Herbicidal rate of 70% or more and less than 90%) and the “H: barnyard grass, herbicidal effect grade” value [9, 30] was 4 (Herbicidal rate of 70% or more and less than 90%). The “I: wild oat, herbicidal effect grade” value [10, 30] was 2 (Herbicidal rate of 20% or more and less than 40%), the “J: blackgrass, herbicidal effect grade” value [11, 30] was 0 (Herbicidal rate of 5% or less (almost no effect)) and the “K: Italian ryegrass, herbicidal effect grade” value [12, 30] was 4 (Herbicidal rate of 70% or more and less than 90%). The “L: windgrass, herbicidal effect grade” value [13, 30] was 4 (Herbicidal rate of 70% or more and less than 90%), the “M: velvetleaf, herbicidal effect grade” value [14, 30] was 1 (Herbicidal rate of 5% or more and less than 20%) and the “N: redroot pigweed, herbicidal effect grade” value [15, 30] was 5 (Herbicidal rate of 90% or more (almost completely withered)). The “O: lambsquarters, herbicidal effect grade” value [16, 30] was 4 (Herbicidal rate of 70% or more and less than 90%), the “P: chickweed, herbicidal effect grade” value [17, 30] was 3 (Herbicidal rate of 40% or more and less than 70%) and the “R: persian speedwell, herbicidal effect grade” value [18, 30] was 5 (Herbicidal rate of 90% or more (almost completely withered)). For the same molecule, the “herbicidal effect on southern crabgrass (F)” value ([19]; 320 g/ha) was 4 (Herbicidal rate of 70% or more and less than 90%), the “herbicidal effect on green foxtail (G)” value ([20]; 320 g/ha) was 5 (Herbicidal rate of 90% or more (almost completely withered)) and the “herbicidal effect on barnyard grass (H)” value ([21]; 320 g/ha) was 5 (Herbicidal rate of 90% or more (almost completely withered)). For the same molecule, the “herbicidal effect on wild oat (I)” value ([22]; 320 g/ha) was 4 (Herbicidal rate of 70% or more and less than 90%), the “herbicidal effect on blackgrass (J)” value ([23]; 320 g/ha) was 4 (Herbicidal rate of 70% or more and less than 90%) and the “herbicidal effect on Italian ryegrass (K)” value ([24]; 320 g/ha) was 5 (Herbicidal rate of 90% or more (almost completely withered)). The “herbicidal effect on windgrass (L)” value ([25]; 320 g/ha) was 4 (Herbicidal rate of 70% or more and less than 90%), the “herbicidal effect on velvetleaf (M)” value ([26]; 320 g/ha) was 5 (Herbicidal rate of 90% or more (almost completely withered)) and the “herbicidal effect on lambsquarters (O)” value ([27]; 320 g/ha) was 5 (Herbicidal rate of 90% or more (almost completely withered)). For the same molecule, the “herbicidal effect on persian speedwell (R)” value ([28]; 320 g/ha) was 5 (Herbicidal rate of 90% or more (almost completely withered)).
